Assay results published in patent US20190231686A1, “METHODS FOR TREATING CYSTIC FIBROSIS AND OTHER DISEASES AFFECTING MUCOSAL SURFACES” (priority 2016, published 2019).

What was measured:
[1] = system: patients with cystic fibrosis; conditions: single inhalation, CF patients; cited from earlier work
[2] = system: mucoid CF clinical isolates of P. aeruginosa; conditions: elevated CO2 concentrations; titration with bicarbonate

## N=C(N)NCCC[C@H](N)C(=O)O [L-arginine]
[1]
  Exhaled NO: significantly increased
  FEV1: sustained improvement

## O=C(O)O [bicarbonate]
[2]
  Alginate expression: suppressed

## reduced glutathione [GSH]
P. aeruginosa; low oxygen conditions such as within biofilm
  Ability of P. aeruginosa to utilize nitrate, nitrite or nitric oxide for respiration to grow: limits the ability of P. aeruginosa to utilize nitrate, nitrite or nitric oxide for respiration
P. aeruginosa; nitrite and nitric oxide in the presence of GSH
  Aerobic growth of P. aeruginosa: inhibit aerobic growth of P. aeruginosa
